Data from BindingDB's records for doi:10.1021/ja0727520 (University of California Berkeley, 2007).
pKi: −log10 of the molar value.

Legend:
Test in all cases: Determination of Inhibitor Ki
Details in all cases: pH 7.4; 22 °C
[1] = molecular target: T1, TYR_PHOSPHATASE_2 domain-containing protein (Mycobacterium tuberculosis (strain CDC 1551 / Oshkosh), UniProt P96830)
T1 sequence (P96830 whole entry): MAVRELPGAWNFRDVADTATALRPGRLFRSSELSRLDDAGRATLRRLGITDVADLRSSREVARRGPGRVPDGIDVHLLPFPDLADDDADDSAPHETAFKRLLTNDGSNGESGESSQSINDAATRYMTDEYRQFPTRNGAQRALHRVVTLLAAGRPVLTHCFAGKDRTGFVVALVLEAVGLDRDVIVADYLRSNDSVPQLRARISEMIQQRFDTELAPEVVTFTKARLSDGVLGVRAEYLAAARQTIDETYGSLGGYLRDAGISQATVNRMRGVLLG
Source text: (§1) The initial rate data collected was used for determination of Ki values. For Ki determination, the kinetic values were obtained directly from nonlinear regression of substrate-velocity curves in the presence of various concentrations of inhibitor.

[2] = molecular target: T2, Low molecular weight protein-tyrosine phosphatase A (Mycobacterium tuberculosis (strain ATCC 25618 / H37Rv), UniProt P9WIA1)
T2 sequence (P9WIA1 whole entry): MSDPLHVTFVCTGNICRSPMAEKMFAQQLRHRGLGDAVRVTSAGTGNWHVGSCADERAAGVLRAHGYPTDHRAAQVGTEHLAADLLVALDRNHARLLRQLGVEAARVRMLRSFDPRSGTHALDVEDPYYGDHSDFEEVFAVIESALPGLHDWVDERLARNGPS
Source text: as §1

[3] = molecular target: T3, Tyrosine-protein phosphatase non-receptor type 2 (Homo sapiens, UniProt P17706)
T3 sequence (P17706 whole entry): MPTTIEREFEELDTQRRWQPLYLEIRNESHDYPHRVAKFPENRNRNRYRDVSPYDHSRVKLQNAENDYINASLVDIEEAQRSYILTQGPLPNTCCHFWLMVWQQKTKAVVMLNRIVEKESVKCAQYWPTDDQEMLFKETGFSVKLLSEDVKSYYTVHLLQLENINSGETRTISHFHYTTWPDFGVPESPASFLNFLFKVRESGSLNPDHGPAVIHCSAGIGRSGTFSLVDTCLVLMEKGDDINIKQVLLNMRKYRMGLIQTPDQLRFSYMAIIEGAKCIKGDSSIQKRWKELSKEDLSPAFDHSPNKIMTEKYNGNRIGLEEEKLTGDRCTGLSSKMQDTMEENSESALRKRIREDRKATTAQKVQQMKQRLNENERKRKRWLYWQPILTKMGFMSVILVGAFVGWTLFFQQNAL
Source text: as §1

[4] = molecular target: Dual specificity protein phosphatase 3 (Homo sapiens, UniProt P51452)
Chain of Dual specificity protein phosphatase 3 (P51452 whole entry): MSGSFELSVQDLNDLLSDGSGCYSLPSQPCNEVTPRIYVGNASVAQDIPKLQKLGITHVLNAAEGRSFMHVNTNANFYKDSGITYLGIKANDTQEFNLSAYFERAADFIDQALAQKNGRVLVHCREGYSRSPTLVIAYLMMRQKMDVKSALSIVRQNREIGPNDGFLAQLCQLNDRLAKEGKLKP
Source text: as §1

[5] = molecular target: T4, Receptor-type tyrosine-protein phosphatase C (Homo sapiens, UniProt P08575)
T4 sequence (P08575 whole entry): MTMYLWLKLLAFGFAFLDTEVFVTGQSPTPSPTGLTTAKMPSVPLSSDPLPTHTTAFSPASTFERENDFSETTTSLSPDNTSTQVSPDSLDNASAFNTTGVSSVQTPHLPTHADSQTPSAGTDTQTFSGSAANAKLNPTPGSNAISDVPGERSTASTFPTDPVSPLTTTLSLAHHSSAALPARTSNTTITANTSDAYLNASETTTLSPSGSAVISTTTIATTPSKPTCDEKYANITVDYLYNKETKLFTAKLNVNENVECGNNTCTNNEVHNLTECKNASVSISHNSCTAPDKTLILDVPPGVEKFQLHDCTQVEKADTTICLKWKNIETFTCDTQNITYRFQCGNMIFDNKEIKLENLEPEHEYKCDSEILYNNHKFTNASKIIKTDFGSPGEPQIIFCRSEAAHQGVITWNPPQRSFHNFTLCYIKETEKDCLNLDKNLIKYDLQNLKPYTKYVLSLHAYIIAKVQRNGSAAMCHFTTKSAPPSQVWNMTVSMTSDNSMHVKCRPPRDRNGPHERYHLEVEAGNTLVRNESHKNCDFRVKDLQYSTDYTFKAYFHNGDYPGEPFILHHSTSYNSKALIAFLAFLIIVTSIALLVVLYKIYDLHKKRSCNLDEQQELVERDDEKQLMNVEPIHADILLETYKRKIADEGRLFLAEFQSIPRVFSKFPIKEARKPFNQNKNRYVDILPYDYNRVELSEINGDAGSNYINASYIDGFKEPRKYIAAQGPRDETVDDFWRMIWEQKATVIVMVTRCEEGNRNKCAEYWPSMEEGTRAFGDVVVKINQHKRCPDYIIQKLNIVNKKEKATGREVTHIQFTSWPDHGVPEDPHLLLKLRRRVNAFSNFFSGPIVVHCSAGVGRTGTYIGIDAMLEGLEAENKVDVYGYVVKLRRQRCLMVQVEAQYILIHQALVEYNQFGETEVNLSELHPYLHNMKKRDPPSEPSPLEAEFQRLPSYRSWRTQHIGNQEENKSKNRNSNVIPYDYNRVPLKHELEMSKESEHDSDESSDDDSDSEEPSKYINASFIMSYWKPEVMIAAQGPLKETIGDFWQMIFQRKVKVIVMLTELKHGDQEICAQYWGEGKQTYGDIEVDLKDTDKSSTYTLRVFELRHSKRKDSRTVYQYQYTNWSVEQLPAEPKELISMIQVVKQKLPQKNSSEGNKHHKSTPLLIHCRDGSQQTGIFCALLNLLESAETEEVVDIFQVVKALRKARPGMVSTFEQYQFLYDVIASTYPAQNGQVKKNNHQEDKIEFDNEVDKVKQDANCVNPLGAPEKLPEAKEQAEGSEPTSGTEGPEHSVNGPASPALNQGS
Source text: as §1

[6] = molecular target: Receptor-type tyrosine-protein phosphatase F (Homo sapiens, UniProt P10586)
Chain of Receptor-type tyrosine-protein phosphatase F (P10586 whole entry): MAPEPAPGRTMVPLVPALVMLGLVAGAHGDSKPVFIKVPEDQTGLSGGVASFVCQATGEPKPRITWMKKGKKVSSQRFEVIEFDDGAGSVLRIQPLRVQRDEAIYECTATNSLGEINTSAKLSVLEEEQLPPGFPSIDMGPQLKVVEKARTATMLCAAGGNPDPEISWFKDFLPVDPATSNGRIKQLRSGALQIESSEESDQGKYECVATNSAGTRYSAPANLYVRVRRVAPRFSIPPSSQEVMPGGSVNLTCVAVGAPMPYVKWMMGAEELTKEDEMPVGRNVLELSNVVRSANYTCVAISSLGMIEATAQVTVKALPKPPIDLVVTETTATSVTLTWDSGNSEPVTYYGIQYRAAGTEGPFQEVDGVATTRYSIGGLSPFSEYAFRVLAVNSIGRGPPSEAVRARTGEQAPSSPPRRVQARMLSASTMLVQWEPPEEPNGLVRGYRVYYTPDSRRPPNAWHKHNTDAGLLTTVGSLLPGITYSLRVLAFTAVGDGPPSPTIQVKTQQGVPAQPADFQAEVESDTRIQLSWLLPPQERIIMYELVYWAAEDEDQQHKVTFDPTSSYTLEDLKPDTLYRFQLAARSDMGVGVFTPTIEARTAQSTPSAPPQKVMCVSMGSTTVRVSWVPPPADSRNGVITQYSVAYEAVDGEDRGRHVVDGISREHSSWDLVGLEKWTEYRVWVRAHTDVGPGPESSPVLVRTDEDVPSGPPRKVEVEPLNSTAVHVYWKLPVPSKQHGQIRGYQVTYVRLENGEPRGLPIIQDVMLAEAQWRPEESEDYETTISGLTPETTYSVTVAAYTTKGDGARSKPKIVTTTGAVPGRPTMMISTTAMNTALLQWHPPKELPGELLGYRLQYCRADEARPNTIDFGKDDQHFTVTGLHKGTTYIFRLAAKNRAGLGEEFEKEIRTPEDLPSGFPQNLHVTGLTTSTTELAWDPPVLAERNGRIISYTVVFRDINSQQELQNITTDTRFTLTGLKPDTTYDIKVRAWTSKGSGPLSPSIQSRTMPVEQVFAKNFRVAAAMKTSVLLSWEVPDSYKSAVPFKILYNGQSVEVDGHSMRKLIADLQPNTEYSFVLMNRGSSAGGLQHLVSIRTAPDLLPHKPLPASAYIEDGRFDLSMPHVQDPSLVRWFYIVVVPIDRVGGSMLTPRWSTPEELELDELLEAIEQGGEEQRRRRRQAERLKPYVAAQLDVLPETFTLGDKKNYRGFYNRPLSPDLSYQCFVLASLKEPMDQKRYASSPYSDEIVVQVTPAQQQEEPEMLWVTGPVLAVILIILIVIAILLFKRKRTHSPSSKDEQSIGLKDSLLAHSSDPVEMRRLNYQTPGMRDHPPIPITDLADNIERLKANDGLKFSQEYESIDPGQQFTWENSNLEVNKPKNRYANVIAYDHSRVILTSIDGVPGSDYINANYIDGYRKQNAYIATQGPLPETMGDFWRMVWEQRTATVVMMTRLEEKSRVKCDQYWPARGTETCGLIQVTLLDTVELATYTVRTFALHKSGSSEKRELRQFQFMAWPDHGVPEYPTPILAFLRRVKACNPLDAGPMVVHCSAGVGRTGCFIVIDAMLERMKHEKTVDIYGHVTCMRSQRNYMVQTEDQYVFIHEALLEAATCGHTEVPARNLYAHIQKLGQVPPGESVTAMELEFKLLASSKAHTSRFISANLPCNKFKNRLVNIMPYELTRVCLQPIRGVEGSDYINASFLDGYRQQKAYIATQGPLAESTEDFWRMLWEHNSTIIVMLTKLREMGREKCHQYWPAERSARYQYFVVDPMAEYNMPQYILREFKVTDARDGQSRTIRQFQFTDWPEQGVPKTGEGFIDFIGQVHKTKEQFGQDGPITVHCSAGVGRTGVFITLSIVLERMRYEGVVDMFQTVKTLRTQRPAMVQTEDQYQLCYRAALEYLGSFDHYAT
Source text: as §1

Compound `CC(C)c1cc(-c2ccc(F)c(C(F)(F)F)c2)ccc1-c1cc(C(=O)O)no1` [5-{4-[4-fluoro-3-(trifluoromethyl)phenyl]-2-(propan-2-yl)phenyl}-1,2-oxazole-3-carboxylic acid] has a pKi [1] of 6.30.
With `O=C(O)c1cc(-c2ccc(-c3ccc(F)c(C(F)(F)F)c3)cc2C2CCCCC2)on1` [5-{2-cyclohexyl-4-[4-fluoro-3-(trifluoromethyl)phenyl]phenyl}-1,2-oxazole-3-carboxylic acid] the pKi [2] was < 4.30, the pKi [3] was < 4.30 and the pKi [4] was < 4.30. It also gave a pKi [5] of 5.11 and a pKi [6] of 4.67.
For `O=C1CC(c2ccc(-c3cccc(C(F)(F)F)c3)cc2)S(=O)(=O)N1` (centres undefined) [5-{4-[3-(trifluoromethyl)phenyl]phenyl}-1,2-thiazolidine-1,1,3-trione], the pKi [1] was 5.06.
`CC(C)c1cc(-c2cccc(C(F)(F)F)c2)ccc1-c1cc(C(=O)O)no1` [5-[2-(propan-2-yl)-4-[3-(trifluoromethyl)phenyl]phenyl]-1,2-oxazole-3-carboxylic acid] showed a pKi [1] of 6.07.
Compound `O=C(O)c1cc(-c2ccc(-c3cccc(C(F)(F)F)c3)cc2)on1` [5-{4-[3-(trifluoromethyl)phenyl]phenyl}-1,2-oxazole-3-carboxylic acid] has a pKi [1] of 5.60.
